Measurements published in ChEMBL document CHEMBL3808279, “Sequential one-pot synthesis of bis(indolyl)glyoxylamides: Evaluation of antibacterial and anticancer activities” (Bioorg Med Chem Lett, 2016).
Converted amounts (≈) assume the structure as drawn. The source made the active and inactive calls. The calls are words filed in the database; no cut-off is given here.

How the values were obtained:
[1] = tested on: Staphylococcus aureus; test: Antibacterial activity against Staphylococcus aureus after 18 to 24 hrs by microbroth dilution method; assay type: functional; details: for MIC: Staphylococcus aureus
[2] = tested on: HeLa; test: Cytotoxicity against human HeLa cells after 48 hrs by MTT assay; assay type: functional, cell-based
[3] = Cytotoxicity against human PC3 cells after 48 hrs by MTT assay; assay type: functional, cell-based; details: PC-3, 48 h
[4] = tested on: Klebsiella pneumoniae; test: Antibacterial activity against Klebsiella pneumoniae after 18 to 24 hrs by microbroth dilution method; assay type: functional; details: for MIC: Klebsiella pneumoniae
[5] = tested on: MDA-MB-231; test: Cytotoxicity against human MDA-MB-231 cells after 48 hrs by MTT assay; assay type: functional, cell-based; details: MDA-MB-231, 48 h
[6] = Cytotoxicity against human BxPC3 cells after 48 hrs by MTT assay; assay type: functional, cell-based; details: BXPC-3, 48 h
[7] = Cytotoxicity against human C4-2 cells after 48 hrs by MTT assay; assay type: functional, cell-based; details: LNCaP C4-2, 48 h
[8] = tested on: Escherichia coli; test: Antibacterial activity against Escherichia coli after 18 to 24 hrs by microbroth dilution method; assay type: functional; details: for MIC: Escherichia coli
[9] = tested on: Pseudomonas putida; test: Antibacterial activity against Pseudomonas putida after 18 to 24 hrs by microbroth dilution method; assay type: functional; details: for MIC: Pseudomonas putida
[10] = Cytotoxicity against human HEK293T cells after 48 hrs by MTT assay; assay type: cell-based; details: HEK-293T
[11] = tested on: Bacillus subtilis; test: Antibacterial activity against Bacillus subtilis after 18 to 24 hrs by microbroth dilution method; assay type: functional; details: for MIC: Bacillus subtilis
[12] = tested on: Pseudomonas putida; test: Bactericidal activity against Pseudomonas putida assessed as maximum bactericidal reduction at 3 times MIC after 3 hrs by time-kill analysis; assay type: functional, organism-based
[13] = tested on: Bacillus subtilis; test: Bactericidal activity against Bacillus subtilis at 3 times MIC after 2 hrs by time-kill analysis; assay type: functional
[14] = tested on: Pseudomonas putida; test: Bactericidal activity against Pseudomonas putida at 3 times MIC after 2 hrs by time-kill analysis; assay type: functional
[15] = Stability of compound at pH 4.5 up to 48 hrs by HPLC analysis; assay type: physicochemical; details: buffer, pH 4.5, 48 h
[16] = tested on: Escherichia coli; test: Bactericidal activity against Escherichia coli at 3 times MIC after 2 hrs by time-kill analysis; assay type: functional
[17] = tested on: Staphylococcus aureus; test: Bactericidal activity against Staphylococcus aureus at 3 times MIC after 2 hrs by time-kill analysis; assay type: functional
[18] = tested on: Escherichia coli; test: Bactericidal activity against Escherichia coli assessed as maximum bactericidal reduction at 3 times MIC after 3 hrs by time-kill analysis; assay type: functional, organism-based
[19] = Stability of compound at pH 7.4 up to 48 hrs by HPLC analysis; assay type: physicochemical; details: buffer, pH 7.4, 48 h
[20] = tested on: Micrococcus luteus; test: Antimicrobial activity against Sarcina lutea; assay type: functional
[21] = tested on: Corynebacterium xerosis; test: Antimicrobial activity against Corynebacterium xerosis; assay type: functional
[22] = tested on: PC-3; test: Induction of apoptosis in human PC3 cells assessed as increase in cleaved PARP1 level after 48 hrs by immunoblot analysis; assay type: functional, cell-based

Structure (SMILES) | inhibition zone (IZ) [1] | MIC [1] | IC50 [2] | IC50 [3] | inhibition zone (IZ) [4] | MIC [4] | IC50 [5] | IC50 [6] | IC50 [7] | inhibition zone (IZ) [8] | MIC [8] | inhibition zone (IZ) [9] | MIC [9] | IC50 [10] | inhibition zone (IZ) [11] | MIC [11] | also measured
CCn1cc(C(=O)C(=O)NCCc2c[nH]c3ccccc23)c2ccccc21 | 14 mm | 100 mg/L (≈ 278 µM) | > 100 µM | > 100 µM | 13 mm | > 100 mg/L | > 100 µM | > 100 µM | > 100 µM | 14 mm | > 50 mg/L | 12 mm | > 100 mg/L | > 100 µM | 14 mm | 100 mg/L (≈ 278 µM) | –
O=C(NCCc1c[nH]c2ccccc12)C(=O)c1c[nH]c2ccc(Br)cc12 | 15 mm | > 100 mg/L | > 100 µM | > 100 µM | 15 mm | 100 mg/L (≈ 244 µM) | > 100 µM | > 100 µM | > 100 µM | 16 mm | 50 mg/L (≈ 122 µM) | 14 mm | 100 mg/L (≈ 244 µM) | > 100 µM | 14 mm | 100 mg/L (≈ 244 µM) | –
Cn1cc(C(=O)C(=O)NCCc2c[nH]c3ccccc23)c2ccccc21 | 16 mm | 50 mg/L (≈ 145 µM) | > 100 µM | > 100 µM | 17 mm | 25 mg/L (≈ 72.4 µM) | > 100 µM | > 100 µM | > 100 µM | 18 mm | 12.5 mg/L (≈ 36.2 µM) | 17 mm | > 25 mg/L | > 100 µM | 18 mm | > 25 mg/L | Activity [12]: Active; Activity [13]: >80%; Activity [14]: 80%; Stability [15]: Stable; Activity [16]: 80%; Activity [17]: >65%; Activity [18]: Active; Stability [19]: Stable
O=C1N=C(C(=O)c2c[nH]c3ccc(Br)cc23)N/C1=C\c1c[nH]c2ccccc12 | – | – | – | – | – | – | – | – | – | – | – | – | – | – | – | – | MIC [20]: 16 mg/L (≈ 36.9 µM); MIC [21]: 16 mg/L (≈ 36.9 µM)
COc1ccc2c(c1)c(C(=O)C(=O)NCCc1c[nH]c3ccccc13)cn2Cc1ccc(Cl)cc1 | – | – | > 100 µM | > 100 µM | – | – | > 100 µM | > 100 µM | > 100 µM | 13 mm | > 100 mg/L | 15 mm | 50 mg/L (≈ 103 µM) | > 100 µM | – | – | –
O=C(NCCc1c[nH]c2ccccc12)C(=O)c1cn(Cc2ccc(Cl)cc2)c2ccccc12 | 17 mm | > 25 mg/L | > 100 µM | > 100 µM | 18 mm | > 12.5 mg/L | > 100 µM | > 100 µM | > 100 µM | 18 mm | 12.5 mg/L (≈ 27.4 µM) | 18 mm | 12.5 mg/L (≈ 27.4 µM) | > 100 µM | 17 mm | > 25 mg/L | Activity [12]: Active; Activity [13]: >80%; Activity [14]: 80%; Stability [15]: Stable; Activity [16]: 80%; Activity [17]: >65%; Activity [18]: Active; Stability [19]: Stable
O=C(NCCc1c[nH]c2ccccc12)C(=O)c1c[nH]c2ccccc12 | 15 mm | 50 mg/L (≈ 151 µM) | 48.9 µM | 38.5 µM | 14 mm | 100 mg/L (≈ 302 µM) | 48.7 µM | 64 µM | 71.5 µM | 15 mm | 50 mg/L (≈ 151 µM) | 14 mm | 50 mg/L (≈ 151 µM) | 97.7 µM | 15 mm | 50 mg/L (≈ 151 µM) | Activity [22]: Active
O=C(NCCc1c[nH]c2ccccc12)C(=O)c1c[nH]c2cc(F)ccc12 | – | – | 22.3 µM | 24.1 µM | 14 mm | > 50 mg/L | 21.1 µM | 29.9 µM | 46 µM | 15 mm | 100 mg/L (≈ 286 µM) | 14 mm | > 100 mg/L | 69.8 µM | – | – | Activity [22]: Active
COc1cccc2c1C(=O)c1c(O)c3c(c(O)c1C2=O)C[C@@](O)(C(=O)CO)C[C@@H]3O[C@H]1C[C@H](N)[C@H](O)[C@H](C)O1 [DOXORUBICIN] | – | – | – | 9.5 µM | – | – | – | 13 µM | 1.85 µM | – | – | – | – | 3.1 µM | – | – | –
